Counter-ions that a name gives are not always drawn.
Test system: Gold Thioglucose-obese (GTG) mice
Assay: Body weight and cumulative food intake in gold thioglucose-obese mice (Example 1)
Type: in vivo
Details: for Δ BW (g) 0-5 Weeks / Body Weight (g ± SEM) Week 1 / Body Weight (g ± SEM) Week 4 / Body Weight (g ± SEM) Week 5: GTG mice; for Cumulative Food Intake / Cumulative Food Intake (grams): per cage of 5 mice
Description: Systemic administration of gold thioglucose (GTG) damages glucose-sensing neurons in the hypothalamus, and consequently impairs regulation of satiety, leading to chronic hyperphagia and consequent obesity. Male C57BL/6J mice, weighing 22 to 25 grams received gold thioglucose (Sigma Chemical Company, St. Louis Mo.) by intraperitoneal injection (500 mg/kg). Mice were given a high fat diet (45% Kcal fat; D12451, Research Diets, New Brunswick, N.J.) for 8 weeks to exacerbate obesity.
Mice were then divided into groups comprising 5 mice each, sorted so that each group had similar mean body weights (approximately 47 grams). Mice received single daily oral treatment with Compound BI, rosiglitazone or combinations of the two drugs. A group of lean control mice on a standard low fat rodent chow was also included.
• 1. Vehicle (1% hydroxypropylmethylcellulose) • 2. Compound BI 30 mg/kg • 3. Compound BI 100 mg/kg • 4. Rosiglitazone (RSG) 3 mg/kg • 5. RSG 3 mg/kg+Compound BI 30 mg/kg • 6. RSG 3 mg/kg+Compound BI 100 mg/kg • 7. Lean Control (no treatment)

[1] = Compound BI 30 mg/kg oral daily
[2] = Compound BI 100 mg/kg oral daily
[3] = GTG-obese mice, 5 weeks, Compound BI 30 mg/kg
[4] = GTG-obese mice, 5 weeks, Compound BI 100 mg/kg
[5] = GTG-obese mice, 5 weeks, RSG 3 mg/kg

Row | SMILES | Δ BW (g) 0-5 Weeks [1] [g] | Δ BW (g) 0-5 Weeks [2] [g] | Body Weight (g ± SEM) Week 1 [1] [g] | Body Weight (g ± SEM) Week 1 [2] [g] | Body Weight (g ± SEM) Week 4 [1] [g] | Body Weight (g ± SEM) Week 4 [2] [g] | Body Weight (g ± SEM) Week 5 [1] [g] | Body Weight (g ± SEM) Week 5 [2] [g] | total food and calorie consumption (in words) (GTG-obese mice, 5 weeks) | Cumulative Food Intake [3] [kcal] | Cumulative Food Intake (grams) [3] [grams] | Cumulative Food Intake [4] [kcal] | Cumulative Food Intake (grams) [4] [grams] | body weight (in words) (GTG-obese mice, over the course of 5 weeks) | Δ BW (g) 0-5 Weeks (RSG 3 mg/kg oral daily) [g] | Body Weight (g ± SEM) Week 1 (RSG 3 mg/kg oral daily) [g] | Body Weight (g ± SEM) Week 4 (RSG 3 mg/kg oral daily) [g] | Body Weight (g ± SEM) Week 5 (RSG 3 mg/kg oral daily) [g] | Cumulative Food Intake [5] [kcal] | Cumulative Food Intake (grams) [5] [grams]
1 | Cc1cccc(C)c1COc1cccc(C(=O)CCC(=O)O)c1 [Compound BI, 4-(3-(2,6-Dimethylbenzyloxy)phenyl)-4-oxobutyric acid] | -9.8 ± 0.2 | -14.6 ± 0.3 | 39.8 ± 0.9 | 38.4 ± 1.1 | 40.0 ± 1.1 | 34.0 ± 1.0 | 37.4 ± 0.9 | 33.0 ± 1.1 | reduced total food and calorie consumption | 1048 | 223 | 902 | 192 | decrease in body weight | – | – | – | – | – | –
2 | CN(CCOc1ccc(CC2SC(=O)NC2=O)cc1)c1ccccn1 (centres unmarked) [RSG, rosiglitazone maleate, reference compound] | – | – | – | – | – | – | – | – | – | – | – | – | – | – | -1.2 ± 0.2 | 47.0 ± 1.0 | 46.0 ± 1.1 | 46.3 ± 1.0 | 1293 | 275
